Test results taken from patent US7101915B1, “P-terphenyl compounds” (Shionogi & Co., Ltd., priority 1996, dated 2006).
Values after ≈ are worked out from the molar mass of the structure shown. Marks after values point to notes of the source that are not given here.

Assays:
[1] = tested on: IL-4 production of mouse T cell strain EL-4 (TPA); test: Suppressive effect on the cytokine production of mouse T cell strain EL-4: IL-4; type: cell-based; conditions: EL-4, TPA 10 ng/ml, 24 hours, ELISA
Protocol: (§1) Experiment 8 Suppressive Effect on the Cytokine Production of a Mouse T Cell Strain EL-4 In 48-well plate were added 2×10^5 mouse T cell strain EL-4 which were suspended in 0.2 ml of 1% fetal bovine serum-added RPMI 1640 medium (2 mM of sodium bicarbonate, 50 units/ml of penicillin, 50 μg/ml of streptomycin and 5×10^−5 M of 2-mercaptoethanol were added) and the compound of the present invention of a predetermined concentration. TPA was added as a cell stimulater at a final concentration of 10 ng/ml to adjust a final volume of each well to 0.4 ml. Each compound of the present invention was dissolved in DMSO and diluted with the above RPMI 1640 medium, and then for added at a final concentration of 100 ng/ml or less. The cells in the 48-well plate were cultivated in an incubator keeping the humidity 100%, carbon dioxide 5% and air 95% at 37° C. for 24 hours to collect a supernatant of each well. The amount of IL-2, IL-4 and IL-5 released in the medium of each well were measured with the ELISA kit (Amersham K. K.) to be taken as an index of the cytokine production of the cells. TPA free group (-TPA) was used as a control.

[2] = tested on: C3H/HeN mouse splenocytes stimulated with Concanavalin A (Con A); test: Suppressive effect on mitogenic activity of mouse splenocytes in vitro, Con A as mitogen (MTT); type: cell-based; conditions: Con A 5 μg/ml as mitogen, 3 days; for IC50: Mus musculus, Splenocyte, 72 h, read-out: ConA IC50
Protocol: (§2) Experiment 1 Suppressive Effect on a Mitogenic Activity of Mouse Splenocytes In Vitro
(§3) In 96-well microtiter plate 5×10^5 C3H/HeN mouse splenocytes suspended in 0.1 ml of 10% fetal bovine serum-fortified RPMI 1640 medium containing 2 mM of sodium bicarbonate, 50 units/ml of penicillin, 50 μg/ml of streptomycin and 5×10^−5 M of 2-mercaptoethanol were added. Then, 5 μg/ml of Concanavalin A (Con A) or 10 μg/ml of lipopolysaccharide (LPS) as a mitogen and the compound of a pre-determined concentration of the present invention were added to each well so that a final volume of each well reached 0.2 ml. Each compound of the present invention was dissolved in dimethylsulfoxide (DMSO) and diluted with the above RPMI 1640 medium to adjust the final concentration of 100 ng/ml or less. The splenocytes in the 96-well microtiter plate were cultivated at 37° C. for 3 days in an incubator keeping the humidity 100%, carbon dioxide 5% and air 95%. Then, 25 μl of 6 mg/ml MTT [3-(4,5-dimethylthiazol-2-yl)-2,5-diphenyltetrazolium bromide] (Sigma) was added to the each well and cultivated at 37° C. for 4 hours under the same conditions. After the cultivation, 50 μl of 0.02 N hydrochloric acid in 20% sodium dodecyl sulfate (SDS) was added to formazan generated and left at 37° C. for 24 hours for dissolving formazan. An absorption intensity (OD) of formazan generated in proportion to the number of living cells was measured with an immunoreader (InterMed) equipped with a 570 nm filter (The Journal of Immunological Method, 65, 55-63, 1983). The 50% inhibitory concentration of a cell proliferation (IC 50) was calculated from a correlation between the concentration of the compound of the present invention and the absorption intensity.

[3] = tested on: C3H/HeN mouse splenocytes stimulated with lipopolysaccharide (LPS); test: Suppressive effect on mitogenic activity of mouse splenocytes in vitro, LPS as mitogen (MTT); type: cell-based; conditions: LPS 10 μg/ml as mitogen, 3 days; for IC50: Mus musculus, Splenocyte, 72 h
Protocol: as §2, §3

[4] = tested on: mouse thymoma strain EL4 cells; test: Anti-proliferative activity on EL4 cells (MTT); type: cell-based; conditions: 3 days; for IC50: Mus musculus, 72 h, read-out: EL-4 IC50
Protocol: Experiment 2 Anti-Proliferative Activity on EL4 Cells
In 96-well microtiter plate 4×10^4/0.1 ml of mouse thymoma strain EL4 cells were added and 0.1 ml of the compound of the present invention was added to the mixture so that the concentration was in the range of 0-5,000 ng/ml. After the cultivation for 3 days, the IC50 was calculated by the MTT method as described in Experiment 1.

[5] = tested on: IL-2 production of mouse T cell strain EL-4 (TPA); test: Suppressive effect on the cytokine production of mouse T cell strain EL-4: IL-2; type: cell-based; conditions: EL-4, TPA 10 ng/ml, 24 hours, ELISA
Protocol: as §1

[6] = tested on: IL-5 production of mouse T cell strain EL-4 (TPA); test: Suppressive effect on the cytokine production of mouse T cell strain EL-4: IL-5; type: cell-based; conditions: EL-4, TPA 10 ng/ml, 24 hours, ELISA
Protocol: as §1

[7] = tested on: anti-OVA IgE antibody titer (PCA titer); test: Suppressive effect on the IgE production against ovalbumin (OVA), PCA titer; type: in vivo, BALB/c mice; conditions: untreated group 9-12
Protocol: Experiment 4 Suppressive Effect on the IgE Production Against Ovalbumin (OVA)
BALB/c mice (female, 8-10 weeks old) and Wistar rats (female, 8-10 weeks old) which were bought from Japan SLC, Inc. (Shizuoka) were used.
BALB/c mice were immunized by an intraperitoneal administration of 0.2 ml suspension of 2 μg of ovalbumin (OVA) and 2 mg of aluminium hydroxide gel in physiological saline. After 10 days, blood was drawn from hearts, sera were separated and stocked at −40° C. till the measurement of an IgE antibody titer.
After the compound of the present invention was dissolved or suspended in N, N-dimethylacetoamide, the mixture was diluted 20 times with miglyol 812 neutral oil. The obtained solution was orally administered to mice at 0.1 ml per mouse. The administration was continued for 10 days from the immunizing day to the day before drawing blood. IPD-1151-T (a compound described in Jpn. Pharmacol. (1993) 61, 31–39) and a compound No. 36 (a compound 36 described in J. Med. Chem. (1997) 40: 395–407) were examined as controls by the same method.
4) Measurement of Anti-OVA IgE Antibody Titer (PCA Titer)
The samples 2-fold diluted with physiological saline were prepared from the obtained mouse serum and each 50 μl of the solution was intradermally injected to backs of Wistar rats which previously hair cut. After 24 hours, a passive cutaneous anaphylaxis reaction (PCA) was induced by an intravenous injection of 0.5 ml of physiological saline containing 1 mg of OVA and 5 mg of Evans' blue dye. After 30 minutes, the rats were sacrified and the highest dilution rate of the serum giving bluing with a diameter of more than 5 mm was recorded as the PCA titer. For example, when a serum is positive for the PCA reaction till […], the anti-OVA IgE antibody titer of the mouse is defined as 7.

[8] = tested on: BGG-specific IgE in a serum; test: Suppressive effect on the antibody production against bovine γ globulin (BGG), sandwich ELISA; type: in vivo, BALB/c mice; conditions: 100 mg/kg p.o. every day, serum after 21 days
Protocol: Experiment 3 Suppressive Effect on the Antibody Production Against Bovine γ Globulin (BGG)
On an immunizing day and 7 days after, 50 μg of BGG was subcutaneously inoculated to backs of BALB/c mice (male, 6-8 weeks old) for inducing an immune reaction. After the compound of the present invention was dissolved or suspended in N, N-dimethylacetoamide, the mixture was diluted with miglyol 812 neutral oil. A proper volume of the compound was orally administered (p.o.) to mice every day from the next day of the immunizing. A two hundredth weight to body weight of miglyol was administered to mice in a control group. After 21 days, blood was drawn from each mouse and a serum was separated. BGG-specific IgE in a serum was measured by the sandwich ELISA method using a BGG-coating plate. The suppressive rate of IgE production was calculated from the dilution rate of the serum which has the same absorption intensity as that of the control group for judging the effect of the compound of the present invention.

EL-4 IC50 [4]	Structure (SMILES)	ConA IC50 [2]	LPS IC50 [3]	further results
0.0158 µg/mL	C#CC(O)COc1ccc(-c2c(OC)cc(-c3ccc(O)cc3)c(OC)c2O)cc1O (stereo not shown) [Compound I-301]	0.00706 µg/mL	0.011 µg/mL	IC50 IL-4 [1]: <0.01 µg/mL; IC50 IL-2 [5]: 0.5 µg/mL (≈ 1.18 µM); IC50 IL-5 [6]: 0.12 µg/mL (≈ 0.284 µM)
0.0914 µg/mL	COc1cc(-c2ccc(NCC=C(C)C)c(F)c2)c(OC)cc1-c1ccc(N(C)C)cc1 [Compound I-484]	0.0147 µg/mL	0.0322 µg/mL	PCA Titer ([7]; 40 mg/kg orally for 10 days): <0
0.31 µg/mL	COc1cc(-c2ccc(N(C)C)cc2)c(OC)c(O)c1-c1ccc(OCc2ccc(C)cc2)c(O)c1 [Compound I-256]	<0.02 µg/mL	0.0287 µg/mL	–
<0.02 µg/mL	C=C/C=C\COc1ccc(-c2c(OC)cc(-c3ccc(O)cc3)c(OC)c2O)cc1O [Compound I-175]	<0.02 µg/mL	0.0294 µg/mL	–
0.00048 µg/mL	COc1cc(-c2ccc(OCC=C(C)C)c(O)c2)c(OC)cc1-c1ccc(OCC=C(C)C)c(O)c1 [Compound I-66]	0.00022 µg/mL	0.00035 µg/mL	–
–	CC(C)=CCNc1ccc(-c2cc(C)c(-c3ccc(N(C)C)cc3)cc2C)cc1F [Compound I-925]	–	–	melting point: 100 to 102 °C; PCA Titer ([7]; 40 mg/kg orally for 10 days): 1**
–	COc1cc(-c2ccc(O)cc2)c(OC)c(O)c1-c1ccc(OCC=C(Br)Br)c(O)c1 [Compound I-931]	–	–	melting point: 166 to 168 °C; IC50 [2]: 0.00293 µg/mL (≈ 0.00531 µM); IC50 [3]: 0.00576 µg/mL (≈ 0.0104 µM); IC50 [4]: 0.00437 µg/mL (≈ 0.00791 µM)
0.0618 µg/mL	COc1cc(-c2c(OC)cc(-c3ccc(O)cc3)c(OC)c2CO)ccc1OCC=C(C)C [Compound I-513]	0.00689 µg/mL	0.0111 µg/mL	–
0.0998 µg/mL	COc1cc(-c2ccc(N(C)C)cc2)c(OC)c(OS(C)(=O)=O)c1-c1ccc(OCc2ccccc2)c(O)c1 [Compound I-360]	<0.02 µg/mL	<0.02 µg/mL	–
0.005 µg/mL	CC(C)=CCOc1ccc(-c2cc(C)c(-c3ccc(O)cc3)cc2C)cc1O [Compound I-525]	0.00076 µg/mL	0.00111 µg/mL	Suppressive rate of antigen-specific IgE [8]: >95%
>10 µg/mL	COc1cc(-c2ccc(OCc3ccccc3)c(N)c2)c(OC)cc1-c1ccc(OS(C)(=O)=O)cc1 [Compound I-418]	0.255 µg/mL	0.497 µg/mL	–
–	COc1cc(-c2c(O)c(OC)c(-c3ccc(O)cc3)c(F)c2OC)ccc1OCC=C(C)C [Compound I-1107]	–	–	IC50 [2]: 0.0058 µg/mL (≈ 0.0128 µM); IC50 [3]: 0.0091 µg/mL (≈ 0.02 µM); IC50 [4]: 0.0341 µg/mL (≈ 0.075 µM)
–	O=C(Cc1ccc(Oc2ccc3cc(OCc4ccccc4)ccc3c2)cc1)Nc1ccccc1C(=O)O [No.36]	–	–	PCA Titer ([7]; 10 mg/kg orally for 10 days): 10.4
0.0317 µg/mL	C/C=C/COc1ccc(-c2c(OC)cc(-c3ccc(O)cc3)c(OC)c2O)cc1O [Compound I-49]	0.00889 µg/mL	0.0162 µg/mL	–
–	CCOCC(O)COc1ccc(NC(=O)CC[S+](C)C)cc1.Cc1ccc(S(=O)(=O)[O-])cc1 (stereo not shown) [IPD-1151-T, Suplatast Tosilate, reference compound]	–	–	PCA Titer ([7]; 50 mg/kg orally for 10 days): 9.8
0.00489 µg/mL	COc1cc(-c2ccc(O)cc2)c(OC)c(O)c1-c1ccc(OCC=C(C)Cl)c(O)c1 [Compound I-41]	0.00073 µg/mL	0.00174 µg/mL	–
<0.02 µg/mL	COCOc1c(OC)c(-c2ccc(OS(C)(=O)=O)cc2)cc(OC)c1-c1ccc(OCc2ccccc2)c(O)c1 [Compound I-163]	<0.02 µg/mL	<0.02 µg/mL	–
<0.02 µg/mL	C/C=C\COc1ccc(-c2c(OC)cc(-c3ccc(O)cc3)c(OC)c2O)cc1O [Compound I-173]	<0.02 µg/mL	<0.02 µg/mL	–
0.016 µg/mL	COc1cc(-c2ccc(OCc3ccccc3)c(O)c2)c(OC)cc1-c1ccc(OCc2ccccc2)c(O)c1 [Compound I-63]	0.013 µg/mL	0.027 µg/mL	–
